For this assay, the target named is T1, PD-1/PD-L1 (Homo sapiens, UniProt Q9NZQ7).
T1 construct: purchased CisBio
In words: PD1-PDL1 HTRF assay. The note with it: PD-1/PD-L1 homogenous time-resolved fluorescence (HTRF) binding assay; Tag1-PDL1 5 nM, Tag2-PD1 50 nM. The source says:
The CisBio HTRF assay kit, purchased from CisBio only, was employed to determine the IC50 values of compounds. The PD1-PDL1 HTRF assay measures the interactions between the two proteins, PD1 and PDL1. The interaction is detected by using anti-Tag1 labeled with Europium (HTRF donor) which binds to PDL1 and anti-Tag2 labeled with XL665 (HTRF acceptor) which binds to PD1. When the two antibodies are in proximity, the excitation of the donor fluorophore results in FRET emission from the acceptor fluorophore. The presence of inhibitors for such an interaction result in reduction of HTRF signal.
The assay was conducted in 96-well white assay plates. All the reagents, including Tag1-PDL1, Tag2-PD1, Anti-Tag1-PDL1, Anti-Tag2-PD1 were thawed and diluted with PPI Europium Detection buffer to achieve the desired concentration as per the manufacturer's protocol. A 1000 μM stock solution of test inhibitors was prepared in DMSO. The stock solution was diluted in DMSO to prepare 8 concentrations (1000-0.001 μM). These stock solutions were further diluted in PPI Europium detection buffer to prepare 8 working stock solutions (100-0.0001 μM). To the 96-well plate, 2 μL of the test inhibitor working stock solutions were added followed by 4 μL of Tag1-PDL1 (5 nM) and 4 μL of Tag2-PD1 (50 nM). The plate was incubated at room temperature for 15 min. Subsequently, 10 μL of pre-mixed Anti-Tag1-PDL1 and Anti-Tag2-PD1 solution was added. The plate was sealed and incubated at room temperature for 1 h. The HTRF signal was read on Perkin Elmer Envision plate reader using excitation wavelength of 320 nm, emission wavelengths of 620 nm and 665 nm. Results were obtained by calculating the ratio of signal from acceptor at 665 nm to that of signal from donor at 620 nm multiplied by […]. The IC50 values were determined by the Hill equation using GraphPad Prism software.
Background: In TR-FRET formats the signal depends on donor and acceptor labels being close together.

T1 sequence (Q9NZQ7 19-238 limits assumed): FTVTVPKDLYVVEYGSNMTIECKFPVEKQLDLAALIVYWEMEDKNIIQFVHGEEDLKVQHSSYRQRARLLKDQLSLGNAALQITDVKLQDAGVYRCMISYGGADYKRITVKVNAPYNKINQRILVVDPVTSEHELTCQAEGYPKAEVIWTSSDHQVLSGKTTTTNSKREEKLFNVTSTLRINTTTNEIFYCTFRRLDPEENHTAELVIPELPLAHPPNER

Usually IC50 stands for the concentration at which inhibition is half-maximal. `Cc1c(-c2ccccc2)cccc1-c1ccn2c(-c3ccc(CN4CCCCC4C(=O)O)cc3)cnc2c1` (racemic) [Example 1, 1-(4-(7-(2-methyl-[1,1′-biphenyl]-3-yl)imidazo[1,2-a]pyridin-3-yl)benzyl) piperidine-2-carboxylic acid] registered an IC50 of 0.1 to 1 µM.

On to `Cc1c(-c2ccc3c(c2)OCCO3)cccc1-c1ccn2c(-c3ccc(CN4CCOCC4C(=O)O)cc3)cnc2c1` (racemic) [Example 33, 4-(4-(7-(3-(2,3-dihydrobenzo[b][1,4]dioxin-6-yl)-2-methylphenyl)imidazo[1,2-a]pyridin-3-yl)benzyl)morpholine-3-carboxylic acid], for which the IC50 was 0.1 to 1 µM.

As to `Cc1c(-c2ccc3c(c2)OCCO3)cccc1-c1ccn2c(-c3ccc(CN4CCOCC4C(=O)O)cc3)cnc2c1` (single isomer, unassigned) [Example 34, 4-(4-(7-(3-(2,3-dihydrobenzo[b][1,4]dioxin-6-yl)-2-methylphenyl)imidazo[1,2-a]pyridin-3-yl)benzyl)morpholine-3-carboxylic acid], the concentration for half-maximal inhibition (IC50) lay in the range of 0.1 to 1 µM.

In the case of `Cc1c(-c2ccc3c(c2)OCCO3)cccc1-c1ccn2c(-c3ccc(CN4CCOCC4C(=O)O)cc3)cnc2c1` (single isomer, unassigned) [Example 35, 4-(4-(7-(3-(2,3-dihydrobenzo[b][1,4]dioxin-6-yl)-2-methylphenyl)imidazo[1,2-a]pyridin-3-yl)benzyl)morpholine-3-carboxylic acid], the 50% inhibitory concentration (IC50) is 0.1 to 1 µM.

For `Cc1c(-c2ccccc2)cccc1-c1ccn2c(-c3ccc(CN4CCC[C@H]4C(=O)O)cc3)cnc2c1` [Example 2, (4-(7-(2-methyl-[1,1′-biphenyl]-3-yl)imidazo[1,2-a]pyridin-3-yl)benzyl)proline], the half-maximal inhibitory concentration (IC50) was 0.01 to 0.1 µM.

In turn, `Cc1c(-c2ccccc2)cccc1-c1ccn2c(-c3ccc(CNC4(C(=O)O)COC4)cc3)cnc2c1` [Example 3, 3-((4-(7-(2-methyl-[1,1′-biphenyl]-3-yl)imidazo[1,2-a]pyridin-3-yl)benzyl)amino)oxetane-3-carboxylic acid] registered an IC50 of 0.1 to 1 µM.

The compound `Cc1c(-c2ccccc2)cccc1-c1ccn2c(-c3ccc(CN4C[C@H](O)C[C@H]4C(=O)O)cc3)cnc2c1` [Example 4, (2S,4R)-4-hydroxy-1-(4-(7-(2-methyl-[1,1′-biphenyl]-3-yl)imidazo[1,2-a]pyridin-3-yl)benzyl)pyrrolidine-2-carboxylic acid] displayed an IC50 of 0.1 to 1 µM.

Consider `Cc1c(-c2ccccc2)cccc1-c1ccn2c(-c3ccc(CNC4(C(=O)O)CCC4)cc3)cnc2c1` [Example 5, 1-((4-(7-(2-methyl-[1,1′-biphenyl]-3-yl)imidazo[1,2-a]pyridin-3-yl)benzyl)amino)cyclobutane-1-carboxylic acid], for which the IC50 fell in the range of 0.1 to 1 µM.

Turning to `Cc1c(-c2ccccc2)cccc1-c1ccn2c(-c3ccc(CN4CCOCC4C(=O)O)cc3)cnc2c1` (stereo not shown) [Example 6, 4-(4-(7-(2-methyl-[1,1′-biphenyl]-3-yl)imidazo[1,2-a]pyridin-3-yl)benzyl)morpholine-3-carboxylic acid], the 50% inhibitory concentration (IC50) was 0.1 to 1 µM.

The compound `Cc1c(-c2ccccc2)cccc1-c1ccn2c(-c3ccc(CN4CC(C(=O)O)C4)cc3)cnc2c1` [Example 7, 1-(4-(7-(2-methyl-[1,1′-biphenyl]-3-yl)imidazo[1,2-a]pyridin-3-yl)benzyl)azetidine-3-carboxylic acid] showed an IC50 of 0.1 to 1 µM.

`Cc1c(-c2ccccc2)cccc1-c1ccn2c(-c3ccc(CNCCCO)cc3)cnc2c1` [Example 8, 3-((4-(7-(2-methyl-[1,1′-biphenyl]-3-yl)imidazo[1,2-a]pyridin-3-yl)benzyl)amino)propan-1-ol] displayed a concentration for half-maximal inhibition (IC50) of 0.1 to 1 µM.

Take `Cc1c(-c2ccccc2)cccc1-c1ccn2c(-c3ccc(CN[C@H](C(=O)O)C(C)C)cc3)cnc2c1` [Example 9, (4-(7-(2-methyl-[1,1′-biphenyl]-3-yl)imidazo[1,2-a]pyridin-3-yl)benzyl)valine]: the half-maximal inhibitory concentration (IC50) was 0.1 to 1 µM.

On to `Cc1c(-c2ccccc2)cccc1-c1ccn2c(-c3ccc(CN4CCC[C@H]4C(=O)O)cc3)cnc2c1` [Example 10, (4-(7-(2-methyl-[1,1′-biphenyl]-3-yl)imidazo[1,2-a]pyridin-3-yl)benzyl)-L-proline], for which the IC50 was in the range of 0.1 to 1 µM.

`Cc1c(-c2ccccc2)cccc1-c1ccn2c(-c3ccc(CN4CCC[C@@H]4C(=O)O)cc3)cnc2c1` [Example 11, (4-(7-(2-methyl-[1,1′-biphenyl]-3-yl)imidazo[1,2-a]pyridin-3-yl)benzyl)-D-proline] showed an IC50 of 0.1 to 1 µM.

For `Cc1c(-c2ccccc2)cccc1-c1ccn2c(-c3ccc(CNCC(=O)O)cc3)cnc2c1` [Example 12, (4-(7-(2-methyl-[1,1′-biphenyl]-3-yl)imidazo[1,2-a]pyridin-3-yl)benzyl)glycine], the IC50 is 0.1 to 1 µM.

Turning to `Cc1c(-c2ccccc2)cccc1-c1ccn2c(-c3ccc(CN4CC[C@H]4C(=O)O)cc3)cnc2c1` [Example 13, (S)-1-(4-(7-(2-methyl-[1,1′-biphenyl]-3-yl)imidazo[1,2-a]pyridin-3-yl)benzyl)azetidine-2-carboxylic acid], the IC50 was 0.1 to 1 µM.

Turning to `Cc1c(-c2ccccc2)cccc1-c1ccn2c(-c3ccc(CNCC(O)CC(=O)O)cc3)cnc2c1` (stereo not shown) [Example 14, 3-hydroxy-4-((4-(7-(2-methyl-[1,1′-biphenyl]-3-yl)imidazo[1,2-a]pyridin-3-yl)benzyl)amino) butanoic acid], the half-maximal inhibitory concentration (IC50) fell in the range of 0.1 to 1 µM.

In turn, `Cc1c(-c2ccccc2)cccc1-c1ccn2c(-c3ccc(CNCCCO)cc3)nnc2c1` [Example 15, 3-((4-(7-(2-methyl-[1,1′-biphenyl]-3-yl)-[1,2,4]triazolo[4,3-a]pyridin-3-yl)benzyl)amino)propan-1-ol] displayed an IC50 of 0.1 to 1 µM.

In turn, `Cc1c(-c2ccccc2)cccc1-c1ccn2c(-c3ccc(CNC(C)(C)CO)cc3)cnc2c1` [Example 17, 2-methyl-2-((4-(7-(2-methyl-[1,1′-biphenyl]-3-yl)imidazo[1,2-a]pyridin-3-yl)benzyl)amino)propan-1-ol] registered a 50% inhibitory concentration (IC50) of 0.1 to 1 µM.

`Cc1c(-c2ccccc2)cccc1-c1ccn2c(-c3ccc(CNCCC(=O)O)cc3)cnc2c1` [Example 18, 3-((4-(7-(2-methyl-[1,1′-biphenyl]-3-yl)imidazo[1,2-a]pyridin-3-yl)benzyl)amino)propanoic acid]: the IC50 was in the range of 0.1 to 1 µM.

`Cc1c(-c2ccccc2)cccc1-c1ccn2c(-c3ccc(CNCCS(=O)(=O)O)cc3)cnc2c1` [Example 19, 2-((4-(7-(2-methyl-[1,1′-biphenyl]-3-yl)imidazo[1,2-a]pyridin-3-yl)benzyl)amino)ethane-1-sulfonic acid] yielded an IC50 of 0.1 to 1 µM.

The compound `COc1cc(-c2cnc3cc(-c4cccc(-c5ccccc5)c4C)ccn23)cc(OC)c1CN1CCCC1C(=O)O` (stereo not shown) [Example 20, 1-(2,6-dimethoxy-4-(7-(2-methyl-[1,1′-biphenyl]-3-yl)imidazo[1,2-ai]pyridin-3-yl)benzyl)piperidine-2-carboxylic acid] displayed a half-maximal inhibitory concentration (IC50) of 0.1 to 1 µM.

In the case of `COc1cc(-c2cnc3cc(-c4cccc(-c5ccccc5)c4C)ccn23)cc(OC)c1CN1CCC[C@H]1C(=O)O` [Example 21, (2,6-dimethoxy-4-(7-(2-methyl-[1,1′-biphenyl]-3-yl)imidazo[1,2-a]pyridin-3-yl)benzyl)proline], the IC50 lay in the range of 0.1 to 1 µM.

`Cc1c(-c2ccccc2)cccc1-c1ccn2c(-c3ccc(CN4CCC[C@@H]4CO)cc3)cnc2c1` [Example 23, (R)-(1-(4-(7-(2-methyl-[1,1′-biphenyl]-3-yl)imidazo[1,2-a]pyridin-3-yl)benzyl)pyrrolidin-2-yl)methanol] displayed a half-maximal inhibitory concentration (IC50) of 0.1 to 1 µM.

The compound `Cc1c(-c2ccccc2)cccc1-c1ccn2c(-c3ccc(CN4CCC[C@H]4CO)cc3)cnc2c1` [Example 24, (S)-(1-(4-(7-(2-methyl-[1,1′-biphenyl]-3-yl)imidazo[1,2-a]pyridin-3-yl)benzyl)pyrrolidin-2-yl)methanol] gave a half-maximal inhibitory concentration (IC50) of 0.1 to 1 µM.

Consider `Cc1c(-c2ccc3c(c2)OCCO3)cccc1-c1ccn2c(-c3ccc(CN4CC(C(=O)O)C4)cc3)cnc2c1` [Example 25, 1-(4-(7-(3-(2,3-dihydrobenzo[b][1,4]dioxin-6-yl)-2-methylphenyl)imidazo[1,2-a]pyridin-3-yl)benzyl)azetidine-3-carboxylic acid], for which the half-inhibitory concentration (IC50) is 0.1 to 1 µM.

Compound `Cc1c(-c2ccc3c(c2)OCCO3)cccc1-c1ccn2c(-c3ccc(CN4CC[C@H]4C(=O)O)cc3)cnc2c1` [Example 26, (S)-1-(4-(7-(3-(2,3-dihydrobenzo[b][1,4]dioxin-6-yl)-2-methylphenyl)imidazo[1,2-a]pyridin-3-yl)benzyl)azetidine-2-carboxylic acid] came in with an IC50 of 0.1 to 1 µM.

Turning to `Cc1c(-c2ccc3c(c2)OCCO3)cccc1-c1ccn2c(-c3ccc(CN4CCC[C@@H]4C(=O)O)cc3)cnc2c1` [Example 27, (4-(7-(3-(2,3-dihydrobenzo[b][1,4]dioxin-6-yl)-2-methylphenyl)imidazo[1,2-a]pyridin-3-yl)benzyl)-D-proline], the half-maximal inhibitory concentration (IC50) is 0.1 to 1 µM.

These data come from patent US20260265248A1, “NOVEL PD-L1 INHIBITORS” (AFFIRMA BIOTECH S. L., priority 2023, published 2026).
